In US11352396B2, “Antimicrobial peptides and methods of using same” (Zoetis Services LLC, priority 2017, dated 2022):
Converted amounts (≈) assume the structure as drawn. Residues, ends and D or L forms follow the SMILES beside them.

Columns and labels:
cRBC = assay type: cell-based, canine
Procedure: SEQ ID NO: 1 was selected for further research. Toxicity of SEQ ID NO: 1 to eukaryotic blood cells was compared to that of tachyplesin (SEQ ID NO: 13). A standard, well referenced red blood cell hemolysis assay was employed against multiple species to test the lysis potential of the peptides. Red blood cells (RBCs) were prepared and isolated by several centrifuge and wash steps to remove the plasma fraction. A dose titration (50 μM to 0.05 μM) of test peptides and control peptide melittin were spotted from 50 mM stocks in a 384 well plate. Prepared RBCs were incubated with peptide for one hour at 37° C. Percent hemolysis was measured by optical density at 405 nm and utilizing 1% TritonX100 as hundred percent effect (HPE) and phosphate buffer alone as zero percent effect (ZPE).

[1] = test system: Canine-derived epithelial keratinocyte (CPEK) cells; assay type: cell-based
Procedure: Safety of the peptides listed in table 2 was determining by measuring cell viability. Canine-derived epithelial keratinocyte (CPEK) cells were propagated to determine cell viability in the presence of peptides. Cells were grown from a frozen stock in CnT-09-5 (with supplements) pre-warmed media in a T75 flask and incubated overnight at 37° C., 5% CO2. Cells were washed with phosphate buffer and replenished with pre-warmed CnT-05-9 media and repeated for several days until cells reached a density of 6.6×10^4 cells/mL. Cells were then transferred to a 384 well plate, allowed to settle and dosed with peptides and melittin control peptide (50 μM to 0.05 μM) and incubated overnight at 37° C., 5% CO2. 0.1% TritonX100 as (HPE) and phosphate buffer alone as (ZPE) were added to the plates to calculate percent effect once the assay was terminated with 10 μL CELLTITER-GLO® assay reagents for a luminescent readout.

[2] = test system: MSSP (Methicillin-Susceptible Staphylococcus pseudintermedius); experiment: MIC against selected strains of MSSP; assay type: cell-based; set-up: key to MIC MSSP 84658 / MIC MSSP 86000 / MIC MSSP 71990 / MIC MSSP 72036 / MIC MSSP 78032: MIC in μM; key to MIC MSSP 86001 / MIC MSSP 72191 / MIC MSSP 76986 / MIC MSSP 77378: MIC in μM (first well with no visible growth); MIC MSSP 49051 / MIC MSSP 81923 / MIC MSSP 84250 / Effect on MSSP 86000 / Effect on MSSP 72036 / Effect on MSSP 78032: unit not given beside the values; conditions: for MIC MSSP 49051: strain 49051, Table 3; for MIC MSSP 71990: strain 71990, Table 3; for MIC MSSP 72036: strain 72036, Table 3; for MIC MSSP 72191: strain 72191, Table 3; for MIC MSSP 76986: strain 76986, Table 3; for MIC MSSP 77378: strain 77378, Table 3; for MIC MSSP 78032: strain 78032, Table 3; for MIC MSSP 81923: strain 81923, Table 3; for MIC MSSP 84250: strain 84250, Table 3; for MIC MSSP 84658: strain 84658, Table 3; for MIC MSSP 86000: strain 86000, Table 3; for MIC MSSP 86001: strain 86001, Table 3
Procedure: (§1) Peptides according to SEQ ID NOs as listed in Table 1 were prepared by a commercial manufacturer (CS Bio, Menlo Park, Calif.) using solid phase synthesis. Antimicrobial activity was assessed by determining the Minimal Inhibitory Concentration (MIC) against S. aureus and E. coli. Briefly, Microbroth MICs were performed using CLSI methodology (VET01-S2). For S. aureus and E. coli ATCC strains, TSA with 5% lysed horse blood agar was used for overnight culturing at 37° C. ambient air. A 0.5 mM stock for each peptide was made with cell culture water, 0.01% acetic acid and serially diluted and spotted (10 μL) in a 96-well plate for in assay dose titration concentration of 50 μM to 0.05 μM. 0.5 McFarland Standard of each strain was diluted 1:250 in Mueller-Hinton Broth (MHB). 90 μL of culture suspension was then added upon drug in the 96-well plate for overnight incubation for 18-20 hours. The MIC was determined visually at the first well of no visible growth at the corresponding concentration.
(§2) Antimicrobial activity of the peptides listed in Table 2 against different strains of MSSP (Methicillin-Susceptible Staphylococcus pseudintermedius) and MRSP (Methicillin-Resistant Staphylococcus pseudintermedius) was further assessed. The results are in Tables 3 and 4, respectively.

[3] = test system: MRSP (Methicillin-Resistant Staphylococcus pseudintermedius); experiment: MIC against selected strains of MRSP; assay type: cell-based; set-up: key to MIC MRSP 88493 / MIC MRSP 72035 / MIC MRSP 81926: MIC in μM; key to MIC MRSP 71994 / MIC MRSP 79882 / MIC MRSP 80729 / MIC MRSP 86002: MIC in μM (first well with no visible growth); key to MIC MRSP 72192 / MIC MRSP 76923 / MR 71994 / Mr 88493 / MR 72035 / MR 72192 / MR 76923 / MR 79882 / MR 80279 / MR 81926 / MR 86002 / MR 87665: MIC in μM (visual, first well with no growth); MIC MRSP 87655: unit not given beside the values; conditions: for MIC MRSP 71994: strain 71994, Table 4; for MIC MRSP 72035: strain 72035, Table 4; for MIC MRSP 72192: strain 72192, Table 4; for MIC MRSP 76923: strain 76923, Table 4; for MIC MRSP 79882: strain 79882, Table 4; for MIC MRSP 80729: strain 80729, Table 4; for MIC MRSP 81926: strain 81926, Table 4; for MIC MRSP 86002: strain 86002, Table 4; for MIC MRSP 87655: strain 87655, Table 4; for MIC MRSP 88493: strain 88493, Table 4
Procedure: as §1, §2

E. coli ATCC 25922 = assay type: cell-based; conditions: ATCC 25922
Procedure: as §1

S. aureus ATCC 29213 = assay type: cell-based; conditions: ATCC 29213
Procedure: as §1

| Compound | cRBC (50 μM) (cRBC) | CPEK (50 μM) [1] | MIC MSSP 49051 [2] | MIC MSSP 71990 [2] | MIC MSSP 72036 [2] | MIC MSSP 72191 [2] | MIC MSSP 76986 [2] | MIC MSSP 77378 [2] | MIC MSSP 78032 [2] | MIC MSSP 81923 [2] | MIC MSSP 84250 [2] | MIC MSSP 84658 [2] | MIC MSSP 86000 [2] | MIC MSSP 86001 [2] | MIC MRSP 71994 [3] | MIC MRSP 72035 [3] | MIC MRSP 72192 [3] | MIC MRSP 76923 [3] | MIC MRSP 79882 [3] | MIC MRSP 80729 [3] | also measured |
| --- | --- | --- | --- | --- | --- | --- | --- | --- | --- | --- | --- | --- | --- | --- | --- | --- | --- | --- | --- | --- | --- |
| 8 (KWCFRVCYRGACYRRCRD; Artificial Antimicrobial peptide) [compound 8] | 30.2 | 24.6 | 1.6 | 1.6 | 1.6 | 1.6 | 1.6 | 0.8 | 1.6 | 3.1 | 1.6 | 1.6 | 1.6 | 1.6 | 1.6 | 1.6 | 1.6 | 1.6 | 1.6 | 1.6 | MIC MRSP 81926 [3]: 1.6; MIC MRSP 86002 [3]: 1.6; MIC MRSP 87655 [3]: 1.6; MIC MRSP 88493 [3]: 1.6 |
| 9 (KWCFRVCYRGFCYRRCRD; Artificial Antimicrobial peptide) [compound 9] | 101.3 | 52.3 | 1.6 | 1.6 | 0.8 | 1.6 | 0.8 | 0.4 | 0.8 | 1.6 | 1.6 | 1.6 | 0.8 | 0.8 | 1.6 | 1.6 | 1.6 | 1.6 | 0.8 | 1.6 | MIC MRSP 81926 [3]: 1.6; MIC MRSP 86002 [3]: 1.6; MIC MRSP 87655 [3]: 1.6; MIC MRSP 88493 [3]: 1.6 |
| 10 (KWCFRVCYRGICYHRCRD; Artificial Antimicrobial peptide) [compound 10] | 101.1 | 31.5 | 1.6 | 1.6 | 1.6 | 1.6 | 1.6 | 0.8 | 1.6 | 1.6 | 1.6 | 1.6 | 1.6 | 1.6 | 1.6 | 1.6 | 1.6 | 1.6 | 0.8 | 1.6 | MIC MRSP 81926 [3]: 1.6; MIC MRSP 86002 [3]: 1.6; MIC MRSP 87655 [3]: 1.6; MIC MRSP 88493 [3]: 1.6 |
| 11 (KWCFRVCYRGICYRRCND; Artificial Antimicrobial peptide) [compound 11] | 57.8 | 22.0 | 0.8 | 1.6 | 0.8 | 0.8 | 0.8 | 0.4 | 0.8 | 1.6 | 0.8 | 0.8 | 0.4 | 0.8 | 1.6 | 1.6 | 0.8 | 0.8 | 0.8 | 0.8 | MIC MRSP 81926 [3]: 0.8; MIC MRSP 86002 [3]: 0.8; MIC MRSP 87655 [3]: 0.8; MIC MRSP 88493 [3]: 1.6 |
| 96 (KWCFRVCYGRICYRRCRD; Artificial Antimicrobial peptide) [compound 96] | 101.4 | 51.9 | 1.6 | 1.6 | 1.6 | 1.6 | 1.6 | 0.8 | 1.6 | 1.6 | 1.6 | 1.6 | 1.6 | 1.6 | 1.6 | 1.6 | 1.6 | 1.6 | 1.6 | 1.6 | MIC MRSP 81926 [3]: 1.6; MIC MRSP 86002 [3]: 1.6; MIC MRSP 87655 [3]: 1.6; MIC MRSP 88493 [3]: 1.6 |
| CC(C)[C@H](NC(=O)[C@H](CS)NC(=O)[C@H](Cc1ccccc1)NC(=O)CNC(=O)[C@H](CC(N)=O)NC(=O)[C@H](CCCCN)NC(=O)[C@H](CS)NC(=O)[C@H](CCCCN)NC(=O)[C@H](CS)NC(=O)CNC(=O)[C@H](CCCCN)NC(=O)[C@@H](N)CCCNC(=N)N)C(=O)N[C@@H](CS)C(=O)N[C@@H](CCCNC(=N)N)C(N)=O [SEQ ID NO: 65, RKGCKCKNGFCVCR-NH2] (H-RKGCKCKNGFCVCR-NH2; N-terminus assumed) |  |  |  |  |  |  |  |  |  |  |  |  |  |  |  |  |  |  |  |  | MIC E. coli ATCC 25922 (E. coli ATCC 25922): 6.25 µM (≈ 10 µg/mL); MIC S. aureus ATCC 29213 (S. aureus ATCC 29213): 50 µM (≈ 80.1 µg/mL) |
| CC(C)C[C@H](NC(=O)[C@H](CCCNC(=N)N)NC(=O)CNC(=O)CNC(=O)[C@@H](N)CCCNC(=N)N)C(=O)N[C@@H](CS)C(=O)N[C@@H](Cc1ccc(O)cc1)C(=O)N[C@@H](CS)C(=O)N[C@@H](CCCNC(=N)N)C(=O)N[C@@H](CCCNC(=N)N)C(=O)N[C@@H](CCCNC(=N)N)C(=O)N[C@@H](Cc1ccccc1)C(=O)N[C@@H](CS)C(=O)N[C@H](C(=O)N[C@@H](CS)C(=O)N[C@H](C(=O)NCC(=O)N[C@@H](CCCNC(=N)N)C(=O)O)C(C)C)C(C)C [SEQ ID NO: 92, RGGRLCYCRRRFCVCVGR] (H-RGGRLCYCRRRFCVCVGR-OH; N-terminus and C-terminus assumed) |  |  |  |  |  |  |  |  |  |  |  |  |  |  |  |  |  |  |  |  | MIC E. coli ATCC 25922 (E. coli ATCC 25922): 3.1 µM (≈ 6.7 µg/mL); MIC S. aureus ATCC 29213 (S. aureus ATCC 29213): 3.1 µM (≈ 6.7 µg/mL) |
